Assay results reported in patent publication US20040248963A1, “Prodrugs of excitatory amino acids” (priority 2001, published 2004).

| SMILES | melting point |
| --- | --- |
| CC(C)(C)C(=O)OCOC(=O)[C@H]1[C@@H]2CC[C@@](N)(C(=O)O)[C@@H]21 [Example 21, (1S,2S,5R,6S)-2-Amino-bicyclo[3.1.0]hexane-2,6-dicarboxylic acid 6-tert-butylcarbonyloxymethyl ester] | 205 to 206 °C |
| Cl.N[C@@]1(C(=O)O)CC[C@H]2[C@H](C(=O)OCOC(=O)c3ccccc3)[C@H]21 | 230 °C (dec.) |
| CC(C)OC(=O)OCOC(=O)[C@H]1[C@@H]2CC[C@@](N)(C(=O)OCOC(=O)OC(C)C)[C@@H]21.Cl | 52 °C |
| COC(=O)OCOC(=O)[C@H]1[C@@H]2CC[C@@](N)(C(=O)O)[C@@H]21 [Example 25, (1S,2S,5R,6S)-2-amino-bicyclo[3.1.0]hexane-2,6-dicarboxylic acid 6-methoxycarbonyloxymethyl ester] | 214 to 215 °C |
| CC(C)OC(=O)OCOC(=O)[C@]1(N)CC[C@H]2[C@H](C(=O)O)[C@H]21.Cl [Example 14, (1S,2S,5R,6S)-2-Amino-bicyclo[3.1.0]hexane-2,6-dicarboxylic acid 2-isopropyloxycarbonyloxymethyl ester hydrochloride] | 59 to 60 °C |
| CC(C)(C)C(=O)OCOC(=O)[C@H]1[C@@H]2CC[C@@](N)(C(=O)O)[C@@H]21.Cl | 258 °C (dec.) |
| CC(C)C(=O)OCOC(=O)[C@H]1[C@@H]2CC[C@@](N)(C(=O)OCOC(=O)C(C)C)[C@@H]21.Cl | 224 to 226 °C |
| Cl.N[C@@]1(C(=O)OCOC(=O)c2ccc3ccccc3c2)CC[C@H]2[C@H](C(=O)OCOC(=O)c3ccc4ccccc4c3)[C@H]21 | 125 to 127 °C |

Continued, values first:

| melting point | SMILES |
| --- | --- |
| 92 to 94 °C | Cl.N[C@@]1(C(=O)OCOC(=O)c2cccc3ccccc23)CC[C@H]2[C@H](C(=O)OCOC(=O)c3cccc4ccccc34)[C@H]21 |
| 212 to 213 °C | Cl.N[C@@]1(C(=O)OCOC(=O)c2cccc3ccccc23)CC[C@H]2[C@H](C(=O)O)[C@H]21 [Example 17, (1S,2S,5R,6S)-2-amino-bicyclo[3.1.0]hexane-2,6-dicarboxylic acid 2-(naphthalene-1′-carbonyloxymethyl) ester hydrochloride] |
| 180 °C (dec.) | Cc1oc(=O)oc1COC(=O)[C@H]1[C@@H]2CC[C@@](N)(C(=O)O)[C@@H]21 [Example 26, (1S,2S,5R,6S)-2-amino-bicyclo[3.1.0]hexane-2,6-dicarboxylic acid 6-(5′-methyl-2′-oxo-[1′,3′]dioxolen-4′-yl)methyl ester] |
| 184 to 185 °C | Cl.N[C@@]1(C(=O)OCOC(=O)c2ccc3ccccc3c2)CC[C@H]2[C@H](C(=O)O)[C@H]21 |
| 196 to 197 °C | CC(C)OC(=O)OCOC(=O)[C@H]1[C@@H]2CC[C@@](N)(C(=O)O)[C@@H]21 [Example 23, (1S,2S,5R,6S)-2-Amino-bicyclo[3.1.0]hexane-2,6-dicarboxylic acid 6-isopropyloxycarbonyloxymethyl ester] |
| 73 °C | Cl.N[C@@]1(C(=O)OCOC(=O)c2ccccc2)CC[C@H]2[C@H](C(=O)OCOC(=O)c3ccccc3)[C@H]21 [Example 43, (1S,2S,5R,6S)-2-Amino-bicyclo[3.1.0]hexane-2,6-dicarboxylic acid, 2,6-dibenzoyloxymethyl ester hydrochloride] |
| 199 to 200 °C | CCCC(=O)OCOC(=O)[C@H]1[C@@H]2CC[C@@](N)(C(=O)O)[C@@H]21 [Example 24, (1S,2S,5R,6S)-2-amino-bicyclo[3.1.0]hexane-2,6-dicarboxylic acid 6-n-butyryloxymethyl ester] |
